# Measurements reported in paper PMC3501516, “Anti-Diabetic Efficacy and Impact on Amino Acid Metabolism of GRA1, a Novel Small-Molecule Glucagon Receptor Antagonist” (PLoS ONE, 2012).
# Read-outs that look alike come from different tables or passages of the source.
# Experiments:
# [1] = biological target: T1, VPAC2R (vasoactive adenylate cyclase-activating polypeptide receptor type 2) (Homo sapiens, UniProt P41587); experiment: Inhibition of agonist-stimulated cAMP production in CHO cells expressing VPAC2R; assay type: cell-based; conditions: VPAC2-stimulated
# T1 construct: expressed in transfected cells
# T1 sequence (P41587 24-438): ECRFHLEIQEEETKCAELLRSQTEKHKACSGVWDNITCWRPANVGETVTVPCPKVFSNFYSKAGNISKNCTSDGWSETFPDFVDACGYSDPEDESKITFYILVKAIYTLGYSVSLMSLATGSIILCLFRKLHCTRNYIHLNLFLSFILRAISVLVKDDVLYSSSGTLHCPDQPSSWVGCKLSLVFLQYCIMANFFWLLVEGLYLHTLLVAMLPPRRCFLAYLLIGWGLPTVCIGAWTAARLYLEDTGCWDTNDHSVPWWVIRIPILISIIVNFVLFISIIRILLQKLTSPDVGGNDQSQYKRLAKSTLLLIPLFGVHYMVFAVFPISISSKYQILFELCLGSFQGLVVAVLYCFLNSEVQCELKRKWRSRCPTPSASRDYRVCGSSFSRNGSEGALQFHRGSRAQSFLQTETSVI
# From the text: Transfected Chinese hamster ovary (CHO) cell lines were acquired and maintained as previously described, [20]. These included separate cell lines stably expressing human GCGR (hGCGR), mouse GCGR, rhesus GGCR, glucose-dependent insulinotropic peptide receptor (GIPR), GLP-1 receptor (GLP-1R), pituitary adenylate cyclase-activating polypeptide receptor type 1 (PAC1R), and vasoactive adenylate cyclase-activating polypeptide receptor type 2 (VPAC2R). Inhibition of glucagon binding to hGCGR was assayed in cell membranes prepared from the line of CHO cells that expressed the hGCGR. Functional antagonism was assayed by measuring the production of cAMP in intact CHO cells stimulated by agonists specific for their cognate receptors (i.e., glucagon for GCGR-expressing cell lines, GIP for the GIPR-expressing line, etc.). Primary human hepatocytes were obtained from In Vitro Technologies (Baltimore, MD) and glucagon-stimulated glycogenolysis was studied in these as previously described.
# [2] = tested on: primary human hepatocytes; experiment: Glucagon-stimulated glycogenolysis in primary human hepatocytes; assay type: cell-based; conditions: 1 h
# Experimental: Figure 1 GRA1 inhibits glucagon-mediated glycogenolysis in vitro and ex-vivo. (A) The chemical structure of GRA1. (B) Dose-dependent inhibition of glucagon-stimulated glycogenolysis in human hepatocytes. The cells were pretreated for 3 h with 200 nM insulin and then challenged with 2 nM glucagon with vehicle (Veh, medium with 1% DMSO) or 0.3–10 µM GRA1. Glycogen content was measured after incubating for 1 h. *p<0.05 and **p<0.01 vs. glucagon+vehicle alone. (C) Inhibition of glucagon-stimulated glycogenolysis in perfused liver prepared from the hGCGR mouse. Livers were perfused with Ringers solution containing 6.7 mM [2-^13C]pyruvate while ^13C content (indicative of accumulated [^13C]glycogen) was monitored dynamically by nuclear magnetic resonance imaging. At time = −22 min, 0.1–3.0 uM GRA1 or vehicle was added to the perfusate; 50 pM glucagon or vehicle was added at time 0. The data are means ±SEM.
# Transfected Chinese hamster ovary (CHO) cell lines were acquired and maintained as previously described, [20]. These included separate cell lines stably expressing human GCGR (hGCGR), mouse GCGR, rhesus GGCR, glucose-dependent insulinotropic peptide receptor (GIPR), GLP-1 receptor (GLP-1R), pituitary adenylate cyclase-activating polypeptide receptor type 1 (PAC1R), and vasoactive adenylate cyclase-activating polypeptide receptor type 2 (VPAC2R). […]
# [3] = tested on: rhesus monkey liver; experiment: Hepatic gene expression (Affymetrix microarray of liver biopsies) in rhesus monkeys; assay type: in vivo; conditions: 30 mg/kg twice daily
# Experimental: Hepatic gene expression was assessed by liver biopsy in adult rhesus monkeys that had been treated twice daily for 1 and 6 days with 30 mg/kg GRA1 or vehicle. The compound was administered to the animals orally in yogurt or a similar treat while they were housed in their home cages. The animals were fasted for approximately 16 h prior to performing liver biopsies laparoscopically, under anesthesia. On biopsy days, animals received their morning doses of GRA1 2 h before the biopsies were performed.
# Total RNA was processed for Affymetrix microarray analysis as previously described. Briefly, total RNA was isolated from frozen tissues after homogenizing in TRIzol reagent (Invitrogen, Carlsbad, CA) and processed using RNeasy kits (QIAGEN, Valencia, CA) according to manufacturers' instructions. Sample amplification, labeling, and microarray processing were performed by the Covance Genomics Laboratory in Seattle, WA using the Affymetrix catalog Rhesus array (Affymetrix, Santa Clara, CA). One-way ANOVA analyses were performed with Matlab (The Mathworks, Natick, MA). Probesets had to pass a pre-filter of Affymetrix MAS5 present call p value <0.05 in >50% of the samples to qualify for further analysis. Differentially expressed genes (probesets) were selected with 1.2-fold change and ANOVA p value <0.05.
# [4] = hGCGR.ob/ob mice, 10 mg/kg•day food admixture, 5 weeks
smiles,measurement,setting,value
"COc1ccc2cc(-c3cc(-c4cc(C(F)(F)F)ccc4F)nn3[C@@H](C)c3ccc(C(=O)NCCC(=O)O)cc3)ccc2c1 [GRA1, N-[4-((1S)-1-{3-(2-fluoro-5-trifluoromethylphenyl)-5-[6-methoxynaphth-2-yl]-1H-pyrazol-1-yl}ethyl)benzoyl]-β-alanine]",IC50,[1],4.2 µM
same,Inhibition of glucagon-induced glycogen loss,"[2]; 10 µM GRA1, 2 nM glucagon",completely prevented
same,inhibition at 0.3 µM,"[2]; Homo sapiens, Hepatocyte, 0.3 µM GRA1, 2 nM glucagon, read-out: Inhibition of glucagon-induced glycogen loss",~50%
same,"AASS (aminoadipate-semialdehyde synthase) hepatic expression, fold difference vs vehicle",[3]; Day 1,−2.0 fold
same,"AGXT2L1 hepatic expression, fold difference vs vehicle",[3]; Day 1,−1.5 fold
same,"ASL (argininosuccinate lyase) hepatic expression, fold difference vs vehicle",[3]; Day 1,−1.5 fold
same,"BCKDHB hepatic expression, fold difference vs vehicle",[3]; Day 1,−1.4 fold
same,"DDC (dopa decarboxylase) hepatic expression, fold difference vs vehicle",[3]; Day 1,−1.4 fold
same,"FH (fumarate hydratase) hepatic expression, fold difference vs vehicle",[3]; Day 1,−1.2 fold
same,"GCKR (glucokinase regulator) hepatic expression, fold difference vs vehicle",[3]; Day 1,1.5 fold
same,"GPT (alanine aminotransferase) hepatic expression, fold difference vs vehicle",[3]; Day 1,−1.5 fold
same,"HPD (4-hydroxyphenylpyruvate dioxygenase) hepatic expression, fold difference vs vehicle",[3]; Day 1,−1.3 fold
same,"KMO (kynurenine 3-monooxygenase) hepatic expression, fold difference vs vehicle",[3]; Day 1,−1.3 fold
same,"OAT (ornithine aminotransferase) hepatic expression, fold difference vs vehicle",[3]; Day 1,−1.9 fold
same,"SDS (serine dehydratase) hepatic expression, fold difference vs vehicle",[3]; Day 1,−8.8 fold
same,"SDSL (serine dehydratase-like) hepatic expression, fold difference vs vehicle",[3]; Day 1,−1.6 fold
same,"SLC7A2 hepatic expression, fold difference vs vehicle",[3]; Day 1,−1.8 fold
same,"TAT (tyrosine aminotransferase) hepatic expression, fold difference vs vehicle",[3]; Day 1,−1.8 fold
same,"ARG1 (arginase, liver) hepatic expression, fold difference vs vehicle",[3]; Day 1 (ns),−1.1 fold
same,"GCK (glucokinase) hepatic expression, fold difference vs vehicle",[3]; Day 1 (ns),2.4 fold
same,"GLS2 (glutaminase 2) hepatic expression, fold difference vs vehicle",[3]; Day 1 (ns),−1.3 fold
same,"GOT1 hepatic expression, fold difference vs vehicle",[3]; Day 1 (ns),−1.5 fold
same,"PAH (phenylalanine hydroxylase) hepatic expression, fold difference vs vehicle",[3]; Day 1 (ns),−1.5 fold
same,"SLC1A2 hepatic expression, fold difference vs vehicle",[3]; Day 1 (ns),−1.6 fold
same,"AASS (aminoadipate-semialdehyde synthase) hepatic expression, fold difference vs vehicle",[3]; Day 6,−3.0 fold
same,"AGXT2L1 hepatic expression, fold difference vs vehicle",[3]; Day 6,−1.8 fold
same,"ARG1 (arginase, liver) hepatic expression, fold difference vs vehicle",[3]; Day 6,−1.3 fold
same,"ASL (argininosuccinate lyase) hepatic expression, fold difference vs vehicle",[3]; Day 6,−1.6 fold
same,"BCKDHB hepatic expression, fold difference vs vehicle",[3]; Day 6,−1.3 fold
same,"FH (fumarate hydratase) hepatic expression, fold difference vs vehicle",[3]; Day 6,−1.2 fold
same,"GCK (glucokinase) hepatic expression, fold difference vs vehicle",[3]; Day 6,5.4 fold
same,"GCKR (glucokinase regulator) hepatic expression, fold difference vs vehicle",[3]; Day 6,1.3 fold
same,"GLS2 (glutaminase 2) hepatic expression, fold difference vs vehicle",[3]; Day 6,−1.6 fold
same,"GOT1 hepatic expression, fold difference vs vehicle",[3]; Day 6,−2.1 fold
same,"GPT (alanine aminotransferase) hepatic expression, fold difference vs vehicle",[3]; Day 6,−1.3 fold
same,"HPD (4-hydroxyphenylpyruvate dioxygenase) hepatic expression, fold difference vs vehicle",[3]; Day 6,−1.2 fold
same,"KMO (kynurenine 3-monooxygenase) hepatic expression, fold difference vs vehicle",[3]; Day 6,−1.5 fold
same,"OAT (ornithine aminotransferase) hepatic expression, fold difference vs vehicle",[3]; Day 6,−3.6 fold
same,"PAH (phenylalanine hydroxylase) hepatic expression, fold difference vs vehicle",[3]; Day 6,−2.1 fold
same,"SDS (serine dehydratase) hepatic expression, fold difference vs vehicle",[3]; Day 6,−27.1 fold
same,"SLC1A2 hepatic expression, fold difference vs vehicle",[3]; Day 6,−7.6 fold
same,"SLC7A2 hepatic expression, fold difference vs vehicle",[3]; Day 6,−2.4 fold
same,"DDC (dopa decarboxylase) hepatic expression, fold difference vs vehicle",[3]; Day 6 (ns),−1.1 fold
same,"SDSL (serine dehydratase-like) hepatic expression, fold difference vs vehicle",[3]; Day 6 (ns),−1.5 fold
same,"TAT (tyrosine aminotransferase) hepatic expression, fold difference vs vehicle",[3]; Day 6 (ns),−1.7 fold
same,Mean GRA1 plasma concentration,[4]; 4 PM,0.77 ± 0.2 µM
same,Mean GRA1 plasma concentration,[4]; 9AM,1.7 ± 0.5 µM
